{"source": "patent US20150196568A1", "about": "“SYSTEM FOR USE BY COMPOUNDING PHARMACISTS TO PRODUCE HORMONE REPLACEMENT MEDICINE CUSTOMIZED FOR EACH CUSTOMER” (priority 2003, published 2015)", "test": "ability of solvent combination to dissolve hormones", "type": "physicochemical", "settings": "combination of ethoxy diglycol and propylene glycol in any ratio, compared with either solvent alone"}
{"compound": "C[C@]12CC[C@H]3[C@@H](CCC4=CC(=O)CC[C@@]43C)[C@@H]1CC[C@@H]2O", "note": "[testosterone]", "values": [{"measurement": "ability to dissolve", "result": "better than using any of the solvents alone"}]}
